Experimental data reported in patent publication US20070231273A1, “Method for Decreasing Blood Glucose Levels” (priority 2006, published 2007).
pIC50: −log10 of the molar value. Values belong to the molecule of their own block, whether it stands above or below them.

What was measured:
[1] = system: smooth muscle cells isolated from pulmonary artery; details: patch-clamp whole-cell; also isolated rat aorta denuded vascular endothelium; cited from earlier work
[2] = cited from earlier work
[3] = system: rat pancreatic islets; test: Measurement of insulin release from isolated islets (RIA); type: cell-based; details: versus basal at 5.5 mM glucose
Procedure: Measurement of insulin release. Isolated islets were hand-picked under microscopy, and ten islets were distributed to each 35-mm Petri dish with 3 ml of HBSS containing 5.5 mM glucose, 20 mM HEPES, and 2% BSA. After pre-incubation for 60 min, islets were exposed to 100 nM BIM for 60 min, and then stimulated by high glucose (22.5 mM), tolbutamide (0.5 mM) or iptakalim (0.1 mM) for 30 min. Before and after glucose stimulation, some samples were collected for measurement of immuno-reactive insulin (IRI), and stored at −20° C. until the assay. IRI was measured by RIA using anti-human insulin antibody with rat insulin standard (Radio-immunoassay Kit, Insulin “Eiken”, Tokyo Japan).
Iptakalim increased insulin release from rat pancreatic islets. Turning finally to FIG. 19, the effects of iptakalim were examined on insulin release. […] With glucose at 5.5 mM in the external solution, basal insulin secretion was observed. Application of 22.5 mM glucose increased insulin secretion about 3-fold (p<0.01, n=6), 500 μM tolbutamide increased insulin secretion about 2.5-fold (p<0.01, n=6), and 100 μM iptakalim increased insulin secretion about 1.5-fold (p<0.05, n=8). Each group was averaged from 5-7 cells tested. Vertical bars indicate SE.

[4] = system: primary cultured hippocampal neurons; details: K+, but not Na+ and Ca2+; cited from earlier work
[5] = system: rat pancreatic β-cells; test: Nystatin-perforation whole-cell recording in current-clamp mode (membrane potential); type: cell-based; details: 100 μM; for effect on membrane potential: in the presence of 10 μM nifedipine
Procedure: (§1) Pancreatic β-cell isolation. Isolation of rat islets was performed as previously described. In short, male adult rats (Wistar) were anesthetized with diethyl ether, and 10 ml of Hank's buffered saline (HBSS) containing collagenase (200 U/ml, Wako Chem., Japan) was injected into the common bile duct. The pancreas, swollen with digestion solution, was quickly excised and incubated in a plastic culture bottle for 20 min at 37° C. The suspension obtained by shaking the bottle was filtered through 0.5 mm metal mesh and washed with HBSS, which included 2% bovine serum albumin (BSA). […] After washing with HBSS, which contained 2% BSA, islets were cultured for 24 h with 5% CO2 in the tissue culture medium. Separation of islets was carried out using dispase (1000 U/ml, Godo Shusei, Japan) as previously described. Separated cells were again cultured for 1-4 days. […] Patch-clamp recordings. Cultured β-cells were kept in a 35-mm Petri dish, and the dish was placed on the stage of an inverted microscope (IMT-2, Olympus, Tokyo, Japan). Membrane potentials and membrane currents were measured using a patch-clamp amplifier (EPC-7, List Electronic, Darmstadt, Germany). The nystatin-perforation method was used to measure the membrane potential and the standard method was used to measure whole-cell currents. […] In order to measure whole-cell membrane current, voltage ramp pulses from −90 to −50 mV were repeatedly applied using a ramp pulse generator (SET-2100, Nihon Kohden, Tokyo, Japan). […] Series resistance below 12 MΩ was accepted. Single channel current recordings were carried out by the cell-attached and inside-out configurations. All electrophysiological experiments were carried out at room temperature (22±1° C.). Data of single channel currents were low-pass filtered at 1 KHz, digitized at 10 KHz and analyzed using a single channel current analysis program (Clampfit 9.2, Axon Instruments, Foster City, Calif.). The concentration-inhibition curve created by iptakalim was fitted using Origin 5.0 (Microcal, North Hampton, Mass.).
Solutions and Drugs. […]

[6] = system: rat β-cells; test: Fura-2 Ca2+ imaging of intracellular Ca2+ concentrations; type: cell-based; details: 100 μM bath-applied; sensitive to nifedipine
Procedure: Fura-2 Ca^2+ imaging. Isolated islets were placed in a glass-bottom culture dish and then loaded with a HEPES buffer solution (in mM: NaCl 140, KCl 4.7, MgCl2 1.2, CaCl2 1.0, glucose 10 and HEPES 10) containing 1 μM fura-2/AM (Dojin, Kumamoto, Japan) for 20 min at room temperature. Ca^+ images were captured using an inverted microscope with 40× Plan-Neofluar objectives (Axiovert 135, Zeiss, Oberkochen, Germany), a silicon intensifier target camera and recorded on a fluorescence-imaging system (Argus 50/CA, Hamamatsu Photonics, Hamamatsu, Japan). Excitation wavelengths were 340 nm and 380 nm, selected from a Xenon light source, and emission wavelength was 510 nm. A change in free intracellular Ca^2+ concentration ([Ca^2+]i) was calculated based on the change in ratio of two fluorescence intensities, F340/F380 (24). All microfluorimetric experiments were carried out at room temperature (22±1° C.).
Iptakalim elevated intracellular Ca^2+ concentrations. Referring to FIGS. 15-18, in order to test whether iptakalim-induced membrane depolarization triggers Ca^2+ influx through voltage-sensitive Ca^2+ channels, intracellular Ca^2+ concentrations were measured using fura-2 florescence imaging.

[7] = target: T1, β-cell KATP channels (Rattus norvegicus, UniProt P70673+Q09429); test: Conventional whole-cell voltage-clamp, ramp pulse-induced KATP channel currents; type: cell-based; set-up: the effects of iptakalim on KATP channels expressed in rat pancreatic β-cells were examined; endogenous in cells; host or cells: primary pancreatic β-cells from male adult Wistar rats; details: for effect on ramp pulse-induced KATP channel whole-cell current: ramp −90 to −50 mV, glucose 5.5 mM
T1 sequence (P70673 whole entry): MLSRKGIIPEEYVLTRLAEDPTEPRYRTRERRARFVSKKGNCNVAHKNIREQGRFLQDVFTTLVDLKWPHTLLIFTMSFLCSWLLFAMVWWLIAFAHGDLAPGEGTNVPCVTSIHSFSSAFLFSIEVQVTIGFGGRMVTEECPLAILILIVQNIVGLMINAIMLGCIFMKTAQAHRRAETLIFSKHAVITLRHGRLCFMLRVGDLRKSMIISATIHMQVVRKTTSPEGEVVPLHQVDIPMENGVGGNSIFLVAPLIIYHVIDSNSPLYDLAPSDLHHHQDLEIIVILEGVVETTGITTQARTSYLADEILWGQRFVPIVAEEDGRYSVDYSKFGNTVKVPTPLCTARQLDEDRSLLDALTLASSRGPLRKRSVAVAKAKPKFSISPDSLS
T1 sequence (Q09429 whole entry): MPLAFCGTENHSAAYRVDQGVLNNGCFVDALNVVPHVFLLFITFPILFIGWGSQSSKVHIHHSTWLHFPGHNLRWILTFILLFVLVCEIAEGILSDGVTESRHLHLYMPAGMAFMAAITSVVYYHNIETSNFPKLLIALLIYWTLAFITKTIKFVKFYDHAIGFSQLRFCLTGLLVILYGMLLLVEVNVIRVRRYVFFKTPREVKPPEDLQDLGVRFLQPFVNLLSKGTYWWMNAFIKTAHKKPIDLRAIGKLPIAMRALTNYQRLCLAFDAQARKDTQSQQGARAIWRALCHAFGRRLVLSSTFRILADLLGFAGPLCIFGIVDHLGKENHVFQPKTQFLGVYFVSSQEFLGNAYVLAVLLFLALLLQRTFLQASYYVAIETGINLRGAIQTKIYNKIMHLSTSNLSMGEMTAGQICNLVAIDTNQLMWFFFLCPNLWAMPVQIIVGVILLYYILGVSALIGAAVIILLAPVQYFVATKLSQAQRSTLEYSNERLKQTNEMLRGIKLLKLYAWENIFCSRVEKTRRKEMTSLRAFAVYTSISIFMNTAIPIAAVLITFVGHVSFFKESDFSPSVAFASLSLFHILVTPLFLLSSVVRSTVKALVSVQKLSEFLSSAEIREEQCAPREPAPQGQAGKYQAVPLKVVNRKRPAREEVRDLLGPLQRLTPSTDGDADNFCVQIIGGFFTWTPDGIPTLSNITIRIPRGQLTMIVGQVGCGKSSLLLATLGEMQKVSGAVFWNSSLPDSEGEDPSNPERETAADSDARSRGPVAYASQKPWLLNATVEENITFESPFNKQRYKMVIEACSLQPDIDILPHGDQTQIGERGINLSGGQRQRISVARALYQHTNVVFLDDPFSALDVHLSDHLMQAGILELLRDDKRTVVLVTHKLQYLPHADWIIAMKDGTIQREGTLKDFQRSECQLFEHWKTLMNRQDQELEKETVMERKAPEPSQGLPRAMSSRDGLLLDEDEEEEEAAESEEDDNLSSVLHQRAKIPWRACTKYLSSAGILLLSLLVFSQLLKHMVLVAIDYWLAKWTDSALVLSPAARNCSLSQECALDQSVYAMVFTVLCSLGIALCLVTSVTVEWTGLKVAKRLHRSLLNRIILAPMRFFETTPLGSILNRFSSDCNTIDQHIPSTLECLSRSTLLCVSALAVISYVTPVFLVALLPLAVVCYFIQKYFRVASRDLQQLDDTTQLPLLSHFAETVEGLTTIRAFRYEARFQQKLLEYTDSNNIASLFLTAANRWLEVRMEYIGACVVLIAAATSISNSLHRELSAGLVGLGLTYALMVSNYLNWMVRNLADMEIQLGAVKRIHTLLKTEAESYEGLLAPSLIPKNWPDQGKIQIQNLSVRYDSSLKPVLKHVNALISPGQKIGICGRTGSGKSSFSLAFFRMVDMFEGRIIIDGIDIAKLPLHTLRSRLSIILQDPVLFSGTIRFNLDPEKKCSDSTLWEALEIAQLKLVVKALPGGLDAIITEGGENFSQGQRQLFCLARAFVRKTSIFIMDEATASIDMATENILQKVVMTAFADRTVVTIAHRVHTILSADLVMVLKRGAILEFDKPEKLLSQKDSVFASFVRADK
Procedure: as §1
Solutions and Drugs. The standard external solution contained (in mM): 135 NaCl, 5.6 KCl, 1.2 MgCl2, 1 CaCl2, 5 glucose, 10 HEPES and pH 7.3 adjusted with KOH. For perforated patch membrane potential recording, the pipette solution contained (in mM): 100 K-gluconate, 35 KCl, 5 glucose, 0.5 EGTA, 10 HEPES, 200 μg/ml nystatin (Sigma, St. Louis, Mo., USA) and pH 7.2. For conventional whole-cell current recording, the pipette solution contained (in mM): 100 K-gluconate, 35 KCl, 1.2 MgCl2, 5 glucose, 0.5 EGTA, 10 HEPES and pH 7.2. For cell-attached and inside-out single channel recordings, the pipette solution contained (in mM): 135 KCl, 1.2 MgCl2, 5 glucose, 0.5 EGTA, 10 HEPES and pH 7.3. […]

[8] = system: KATP channel; details: cited from earlier work
[9] = target: T1, β-cell KATP channels; test: Inside-out patch single channel recording of KATP channels; type: biochemical; set-up: the effects of iptakalim on KATP channels expressed in rat pancreatic β-cells were examined; endogenous in cells; host or cells: primary pancreatic β-cells from male adult Wistar rats; details: 100 μM
Procedure: Pancreatic β-cell isolation. Isolation of rat islets was performed as previously described. In short, male adult rats (Wistar) were anesthetized with diethyl ether, and 10 ml of Hank's buffered saline (HBSS) containing collagenase (200 U/ml, Wako Chem., Japan) was injected into the common bile duct. The pancreas, swollen with digestion solution, was quickly excised and incubated in a plastic culture bottle for 20 min at 37° C. The suspension obtained by shaking the bottle was filtered through 0.5 mm metal mesh and washed with HBSS, which included 2% bovine serum albumin (BSA). […] After washing with HBSS, which contained 2% BSA, islets were cultured for 24 h with 5% CO2 in the tissue culture medium. Separation of islets was carried out using dispase (1000 U/ml, Godo Shusei, Japan) as previously described. Separated cells were again cultured for 1-4 days. […] Patch-clamp recordings. Cultured β-cells were kept in a 35-mm Petri dish, and the dish was placed on the stage of an inverted microscope (IMT-2, Olympus, Tokyo, Japan). Membrane potentials and membrane currents were measured using a patch-clamp amplifier (EPC-7, List Electronic, Darmstadt, Germany). […] Data of single channel currents were low-pass filtered at 1 KHz, digitized at 10 KHz and analyzed using a single channel current analysis program (Clampfit 9.2, Axon Instruments, Foster City, Calif.). […]

[10] = target: T2, Kir6.2/SUR1 (Homo sapiens, UniProt Q09428+Q14654); test: Transfected Kir6.2/SUR1 cell line (HEK 293), data not shown; type: cell-based
T2 construct: expressed in transfected cells; host or cells: HEK 293
T2 sequence (Q14654 whole entry): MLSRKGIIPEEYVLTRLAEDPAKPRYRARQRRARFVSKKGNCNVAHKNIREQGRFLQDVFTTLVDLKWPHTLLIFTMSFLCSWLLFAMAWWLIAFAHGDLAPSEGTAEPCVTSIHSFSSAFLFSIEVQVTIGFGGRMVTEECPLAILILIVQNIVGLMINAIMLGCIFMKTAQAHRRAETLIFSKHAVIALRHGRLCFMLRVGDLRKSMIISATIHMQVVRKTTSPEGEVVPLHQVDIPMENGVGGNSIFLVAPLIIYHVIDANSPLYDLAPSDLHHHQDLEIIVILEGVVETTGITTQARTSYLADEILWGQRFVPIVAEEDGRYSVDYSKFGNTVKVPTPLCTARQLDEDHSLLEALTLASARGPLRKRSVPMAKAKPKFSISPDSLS
T2 sequence (Q09428 whole entry): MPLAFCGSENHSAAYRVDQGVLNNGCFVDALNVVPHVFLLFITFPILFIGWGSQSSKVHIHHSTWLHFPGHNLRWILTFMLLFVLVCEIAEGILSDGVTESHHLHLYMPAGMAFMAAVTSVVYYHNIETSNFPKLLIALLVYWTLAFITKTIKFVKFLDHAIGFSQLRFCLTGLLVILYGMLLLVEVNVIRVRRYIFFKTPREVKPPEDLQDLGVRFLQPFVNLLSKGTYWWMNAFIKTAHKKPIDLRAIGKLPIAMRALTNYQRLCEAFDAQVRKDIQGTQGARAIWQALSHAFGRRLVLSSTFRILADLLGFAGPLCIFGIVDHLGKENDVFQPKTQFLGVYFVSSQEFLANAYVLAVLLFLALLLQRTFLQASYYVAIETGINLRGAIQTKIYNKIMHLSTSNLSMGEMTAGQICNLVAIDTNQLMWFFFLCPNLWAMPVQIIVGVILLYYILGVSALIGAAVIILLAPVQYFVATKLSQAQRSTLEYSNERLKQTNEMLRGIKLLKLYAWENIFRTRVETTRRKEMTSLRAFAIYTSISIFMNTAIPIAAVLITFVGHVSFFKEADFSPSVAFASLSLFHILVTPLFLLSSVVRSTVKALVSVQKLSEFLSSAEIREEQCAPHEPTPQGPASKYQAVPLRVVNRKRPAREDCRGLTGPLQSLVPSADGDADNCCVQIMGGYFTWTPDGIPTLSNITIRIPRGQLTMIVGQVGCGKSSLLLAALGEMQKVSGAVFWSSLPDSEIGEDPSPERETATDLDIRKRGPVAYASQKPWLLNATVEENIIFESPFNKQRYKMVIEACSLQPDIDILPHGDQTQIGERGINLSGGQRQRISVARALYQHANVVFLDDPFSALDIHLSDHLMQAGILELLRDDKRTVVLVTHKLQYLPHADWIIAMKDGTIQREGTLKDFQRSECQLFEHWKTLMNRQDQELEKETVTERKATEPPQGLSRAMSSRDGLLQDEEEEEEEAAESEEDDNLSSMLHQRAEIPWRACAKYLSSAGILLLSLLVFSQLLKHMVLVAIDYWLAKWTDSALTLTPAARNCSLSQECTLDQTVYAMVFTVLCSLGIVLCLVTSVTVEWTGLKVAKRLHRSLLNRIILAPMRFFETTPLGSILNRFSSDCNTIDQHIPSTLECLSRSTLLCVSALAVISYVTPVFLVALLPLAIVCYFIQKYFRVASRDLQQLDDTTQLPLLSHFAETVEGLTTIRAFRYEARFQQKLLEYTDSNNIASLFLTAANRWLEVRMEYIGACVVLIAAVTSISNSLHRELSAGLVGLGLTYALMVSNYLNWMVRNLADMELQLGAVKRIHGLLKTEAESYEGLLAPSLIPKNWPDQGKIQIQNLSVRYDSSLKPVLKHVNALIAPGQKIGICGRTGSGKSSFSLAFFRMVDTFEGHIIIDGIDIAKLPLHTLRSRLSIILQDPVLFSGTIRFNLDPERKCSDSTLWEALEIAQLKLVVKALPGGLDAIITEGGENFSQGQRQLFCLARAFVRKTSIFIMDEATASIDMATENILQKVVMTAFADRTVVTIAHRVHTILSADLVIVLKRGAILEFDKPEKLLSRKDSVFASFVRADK
From the text: It is well known that KATP channels are expressed in a variety of tissues with different SUR subunits. For instance, cardiovascular KATP channels are formed by Kir6.2-SUR2A, pancreatic β-cell KATP channels are formed by Kir6.2-SUR1, while midbrain dopamine neurons are formed by Kir6.2-SUR1 (15,25-27) or Kir6.2-SUR2B. This diversity in SUR subunit expression results in different sensibilities to metabolic stress agents and KATP channel openers.

[11] = target: T1, β-cell KATP channels; test: Cell-attached single channel recording of KATP channels; type: cell-based; set-up: the effects of iptakalim on KATP channels expressed in rat pancreatic β-cells were examined; endogenous in cells; host or cells: primary pancreatic β-cells from male adult Wistar rats
Procedure: as §1
Solutions and Drugs. The standard external solution contained (in mM): 135 NaCl, 5.6 KCl, 1.2 MgCl2, 1 CaCl2, 5 glucose, 10 HEPES and pH 7.3 adjusted with KOH. For perforated patch membrane potential recording, the pipette solution contained (in mM): 100 K-gluconate, 35 KCl, 5 glucose, 0.5 EGTA, 10 HEPES, 200 μg/ml nystatin (Sigma, St. Louis, Mo., USA) and pH 7.2. For conventional whole-cell current recording, the pipette solution contained (in mM): 100 K-gluconate, 35 KCl, 1.2 MgCl2, 5 glucose, 0.5 EGTA, 10 HEPES and pH 7.2. For cell-attached and inside-out single channel recordings, the pipette solution contained (in mM): 135 KCl, 1.2 MgCl2, 5 glucose, 0.5 EGTA, 10 HEPES and pH 7.3. The ionic composition of the solution inside the membrane (bath solution) in inside-out recordings was the same as the pipette solution, but the pH of this solution was 7.2. When performing inside-out recordings, ATP was added to the bath solution at various concentrations.

[12] = system: sulfonylurea (SUR) receptors of KATP channels; details: rat cerebral cortex, hippocampus, and striatum; cited from earlier work
[13] = target: T1, β-cell KATP channels; test: Preliminary experiments on β-cell KATP channels (data not shown); type: cell-based; set-up: endogenous in cells; host or cells: β-cells (preparation not described for these experiments)
[14] = 100 μM bath-application, Vp 0 mV

Hill coefficient of block of KATP channel current ([7]; whole-cell, concentration-inhibition curve): 0.7 | pIC50 ([7]; whole-cell, concentration-inhibition curve, read-out: IC50 of block of KATP channel current): 5.48 | mean open-time probability ([9]; absence of ATP, reduced from 0.359±0.065): 0.145±0.041 | mean open-time probability ([9]; presence of 10 μM ATP, reduced from 0.222±0.042): 0.103±0.029 | sensitivity of Kir6.2/SUR1 channels (opening) [10]: insensitivity | effect on KATP channel activity [11, 14]: reduced channel activities | effect on KATP channel activity ([11]; 100 μM, Vp −60 mV): reduced KATP channel activity | open-time probability of KATP channels ([11]; during application of 100 μM, before application 0.43±0.0438, Vp 0 mV): 0.121±0.026 | current amplitude of KATP channels ([11]; during application of 100 μM, before application 3.51±0.17 pA, Vp 0 mV): 3.16±0.14 pA | mean open time of KATP channels ([11]; during application of 100 μM, before application 5.95±0.62 ms, Vp 0 mV): 8.78 ± 0.81 ms
Compound: CC(C)NC(C)(C)C(C)C.Cl [iptakalim, N-(1-methylethyl)-1,1,2-trimethyl-propylamine hydrochloride]
effect on K+ currents [1]: significantly enhanced K^+ currents | water solubility [2]: water-soluble | increase of insulin secretion ([3]; 100 μM): about 1.5 fold | effect on voltage-activated currents [4]: selectively enhanced voltage-activated K^+ | effect on membrane potential and action potential firing ([5]; 5.5 mM glucose in external solution): slowly depolarized the membrane and elicited action potential firing | effect on membrane potential [5]: clearly depolarized the membrane | effect on intracellular Ca2+ concentrations [6]: induced elevation of intracellular Ca^2+ concentrations | effect on ramp pulse-induced KATP channel whole-cell current ([7]; 100 μM bath-application): reduced the magnitude of the KATP channel current | displacement of specific binding of [3H]P1075 [8]: displaced by iptakalim in a concentration-dependent manner

Compound: CC1=NS(=O)(=O)c2cc(Cl)ccc2N1 [diazoxide, reference compound]
effect on membrane potential [5]: remarkably hyperpolarized the membrane | effect on KATP channel activity [11, 14]: dramatically enhanced KATP channel activity

Compound: CC(N/C(=N\C#N)Nc1ccncc1)C(C)(C)C (stereo not shown) [pinacidil]
displacement of [3H]iptakalim binding [12]: displaced | effect on β-cell KATP channels [13]: showed inhibition of β-cell KATP channels

sensitivity of spontaneous single channel activities ([11]; 500 μM bath-applied, Vp −60 mV): very sensitive
Compound: CCCCNC(=O)NS(=O)(=O)c1ccc(C)cc1 [tolbutamide, reference compound]
increase of insulin secretion ([3]; 500 μM): about 2.5 fold | effect on ramp pulse-induced KATP channel whole-cell current ([7]; 500 μM): reversibly abolished the size of the current | effect on KATP channel activity ([11]; 500 μM bath-application, Vp 0 mV): completely abolished KATP channel activity

Compound: CCC(C)(C)N=C(NC#N)Nc1cccnc1 [P1075]
displacement of [3H]iptakalim binding [12]: displaced
